Data reported in US7973027B2, “Compound with antimalarial activity and antimalarial drug containing the same as active ingredient” (Nagoya City University, priority 2006, dated 2011).

Legend:
[1] = tested on: Plasmodium falciparum (ATCC 30932, FCR-3 strain); test: Evaluation of antimalarial activity (infected human erythrocytes, Giemsa staining); assay type: cell-based; conditions: 37° C., 72 hours, values in FIG. 8 only, stated in words
Method: Human erythrocyte infected with malaria parasite (Plasmodium falciparum (ATCC 30932, FCR-3 strain)) is prepared on a 24-well culture plate and 5 μl each of DMSO solutions of antimalarial drug candidate compounds prepared at various concentrations is added. Thereafter, the erythrocyte is cultured at 37° C. for 72 hours. A part of the cultured erythrocyte is subjected to Giemsa staining. Then, the number of cells infected with malaria is counted under microscope. EC50 values are calculated based on the measurement values.

[2] = tested on: Mouse mammary tumor FM3A cells; test: Evaluation of cytotoxicity; assay type: cell-based; conditions: 37° C., 48 hours, values in FIG. 8 only, stated in words
Method: (2) Evaluation Method of Cytotoxicity (See Hye-Sook Kim; Yasuharu Shibata; Yusuke Wataya; Kaoru Tsuchida; Araki Masuyama; Masatomo Nojima. J. Med. Chem. 1999, 42, 2604-2609)
The concentration of […] (Mouse mammary tumor FM3A cells) is adjusted to 5×10^4 cells/ml, and 5 μl of DMSO solutions of antimalarial drug candidate compounds prepared at various concentrations is added. The cells area cultured at 37° C. for 48 hours and then, the number of surviving cells is counted by the use of microcell counter CC-130 (To a Medical Electric Co.). The measurement results are compared with the results obtained from the control experiment so as to calculate EC50 value.

SMILES: CN(CCNC(=O)C=Cc1c[nH]cn1)CCNc1ccnc2cc(Cl)ccc12 [uro-2Q, N-(2-{[2-(7-Chloro-quinolin-4-ylamino)ethyl]methylamino}ethyl)-3-(1H-imidazol-4-yl)acrylamide]
- antimalarial activity (EC50) [1]: higher antimalarial activity
- cytotoxicity (EC50) [2]: lower toxicity as compared with existing drugs
